{"source": "paper PMC5218480", "about": "(PLoS ONE, 2017)", "system": "MV-4-11 cells", "assay": "Gene expression microarray analysis (Affymetrix PrimeView) and GSEA", "type": "cell-based, human", "parameters": "RFU PODN (11730768_x_at) / Fold change /veh PODN (11730768_x_at) / RFU LINC00158 (11744669_a_at) / Fold change /veh LINC00158 (11744669_a_at) / RFU DUSP10 (11751237_a_at) / Fold change /veh DUSP10 (11751237_a_at) / RFU ID3 (11757404_x_at) / Fold change /veh ID3 (11757404_x_at) / RFU PLEKHG5 (11737974_s_at) / Fold change /veh PLEKHG5 (11737974_s_at) / RFU LRRC4B (11730491_at) / Fold change /veh LRRC4B (11730491_at) / RFU GIMAP4 (11747438_a_at) / Fold change /veh GIMAP4 (11747438_a_at) / RFU KRT8 (11758183_x_at) / Fold change /veh KRT8 (11758183_x_at) / RFU CNN1 (11734310_a_at) / Fold change /veh CNN1 (11734310_a_at) / RFU VPS37D (11726825_at) / Fold change /veh VPS37D (11726825_at) / RFU C10orf10 (11716522_x_at) / Fold change /veh C10orf10 (11716522_x_at) / RFU KIR2DL2 /// KIR2DL4 /// KIR2DL5A /// KIR2DL5B /// KIR2DS1 /// KIR2DS2 /// KIR2DS3 /// KIR2DS4 /// KIR3DL3 /// KIR3DL3 /// KIR3DS1 (11738374_at) / Fold change /veh KIR2DL2 /// KIR2DL4 /// KIR2DL5A /// KIR2DL5B /// KIR2DS1 /// KIR2DS2 /// KIR2DS3 /// KIR2DS4 /// KIR3DL3 /// KIR3DL3 /// KIR3DS1 (11738374_at) / RFU C1QL1 (11718748_at) / Fold change /veh C1QL1 (11718748_at) / RFU TMPRSS4 (11747572_a_at) / Fold change /veh TMPRSS4 (11747572_a_at) / RFU HAMP (11756126_x_at) / Fold change /veh HAMP (11756126_x_at) / RFU RNFT2 (11725882_a_at) / Fold change /veh RNFT2 (11725882_a_at) / RFU NR4A2 (11747474_a_at) / Fold change /veh NR4A2 (11747474_a_at) / RFU ABCC12 (11746883_a_at) / Fold change /veh ABCC12 (11746883_a_at) / RFU TMEM136 (11760407_x_at) / Fold change /veh TMEM136 (11760407_x_at) / RFU CLDN22 /// WWC2 (11732394_at) / Fold change /veh CLDN22 /// WWC2 (11732394_at) / RFU HLA-DPB1 (11760878_x_at) / Fold change /veh HLA-DPB1 (11760878_x_at) / RFU SPINT1 (11716480_a_at) / Fold change /veh SPINT1 (11716480_a_at) / RFU GAP43 (11754022_s_at) / Fold change /veh GAP43 (11754022_s_at) / RFU A4GNT (11735810_at) / Fold change /veh A4GNT (11735810_at) / RFU PRB3 (11715151_x_at) / Fold change /veh PRB3 (11715151_x_at) / RFU TUBB4B (11761932_at) / Fold change /veh TUBB4B (11761932_at) / RFU CAPN14 (11732068_a_at) / Fold change /veh CAPN14 (11732068_a_at) / RFU TMCC2 (11721928_a_at) / Fold change /veh TMCC2 (11721928_a_at) / RFU IRGQ (11745062_a_at) / Fold change /veh IRGQ (11745062_a_at) / RFU FAM174B (11720279_a_at) / Fold change /veh FAM174B (11720279_a_at) / RFU TMPRSS4 (11748680_a_at) / Fold change /veh TMPRSS4 (11748680_a_at) / RFU FAM212B (11763350_a_at) / Fold change /veh FAM212B (11763350_a_at) / RFU PLEKHG5 (11743358_a_at) / Fold change /veh PLEKHG5 (11743358_a_at) / RFU ZSCAN30 (11745921_a_at) / Fold change /veh ZSCAN30 (11745921_a_at) / RFU CMKLR1 (11741424_a_at) / Fold change /veh CMKLR1 (11741424_a_at) / RFU LOC101060620 /// MAPK8IP1 (11723275_at) / Fold change /veh LOC101060620 /// MAPK8IP1 (11723275_at) / RFU SPTSSB (11747773_x_at) / Fold change /veh SPTSSB (11747773_x_at) / RFU PRSS12 (11739890_at) / Fold change /veh PRSS12 (11739890_at) / RFU BIN1 (11741810_x_at) / Fold change /veh BIN1 (11741810_x_at) / RFU WNT11 (11732464_a_at) / Fold change /veh WNT11 (11732464_a_at) / RFU C10orf10 (11716521_a_at) / Fold change /veh C10orf10 (11716521_a_at) / RFU C5orf56 (11738089_at) / Fold change /veh C5orf56 (11738089_at) / RFU CYB561 (11721691_x_at) / Fold change /veh CYB561 (11721691_x_at) / RFU ANKRD19P (11752326_a_at) / Fold change /veh ANKRD19P (11752326_a_at) / RFU OR2T12 /// OR2T33 /// OR2T8 (11738714_s_at) / Fold change /veh OR2T12 /// OR2T33 /// OR2T8 (11738714_s_at) / RFU VCAN (11748164_a_at) / Fold change /veh VCAN (11748164_a_at) / RFU JSRP1 (11732532_at) / Fold change /veh JSRP1 (11732532_at) / RFU KRTAP10-11 (11738290_x_at) / Fold change /veh KRTAP10-11 (11738290_x_at) / RFU MYO3A (11730013_a_at) / Fold change /veh MYO3A (11730013_a_at) / RFU EBF3 (11725865_a_at) / Fold change /veh EBF3 (11725865_a_at) / RFU CAMK2N1 (11719241_x_at) / Fold change /veh CAMK2N1 (11719241_x_at) / RFU C5orf56 (11738088_a_at) / Fold change /veh C5orf56 (11738088_a_at) / RFU OLFML3 (11715873_a_at) / Fold change /veh OLFML3 (11715873_a_at) / RFU LOC100653217 /// NTM (11731650_a_at) / Fold change /veh LOC100653217 /// NTM (11731650_a_at) / RFU MAPK11 (11762145_a_at) / Fold change /veh MAPK11 (11762145_a_at) / RFU FIZ1 (11724087_x_at) / Fold change /veh FIZ1 (11724087_x_at) / RFU OASL (11726364_x_at) / Fold change /veh OASL (11726364_x_at) / RFU SOX15 (11748057_x_at) / Fold change /veh SOX15 (11748057_x_at) / RFU CD79A (11719716_a_at) / Fold change /veh CD79A (11719716_a_at) / RFU HIST1H1D (11736915_at) / Fold change /veh HIST1H1D (11736915_at) / RFU CASKIN2 (11723855_a_at) / Fold change /veh CASKIN2 (11723855_a_at) / RFU LOC730098 (11760151_x_at) / Fold change /veh LOC730098 (11760151_x_at) / RFU OR4N2 (11742367_at) / Fold change /veh OR4N2 (11742367_at) / RFU PRRT2 (11749266_a_at) / Fold change /veh PRRT2 (11749266_a_at) / RFU SNX32 (11753110_a_at) / Fold change /veh SNX32 (11753110_a_at) / RFU CDHR5 (11726645_a_at) / Fold change /veh CDHR5 (11726645_a_at) / RFU RCAN1 (11760418_a_at) / Fold change /veh RCAN1 (11760418_a_at) / RFU FAM167A (11723789_a_at) / Fold change /veh FAM167A (11723789_a_at) / RFU FAM26E (11764081_at) / Fold change /veh FAM26E (11764081_at) / RFU ISYNA1 (11749810_s_at) / Fold change /veh ISYNA1 (11749810_s_at) / RFU ACY1 (11761880_at) / Fold change /veh ACY1 (11761880_at) / RFU 11764098_at / Fold change /veh 11764098_at / RFU SAMD14 (11745864_x_at) / Fold change /veh SAMD14 (11745864_x_at) / RFU NPB (11741838_a_at) / Fold change /veh NPB (11741838_a_at) / RFU TMPRSS6 (11731388_a_at) / Fold change /veh TMPRSS6 (11731388_a_at) / RFU KRTAP10-2 (11738614_at) / Fold change /veh KRTAP10-2 (11738614_at) / RFU ARHGAP8 /// PRR5-ARHGAP8 (11727945_x_at) / Fold change /veh ARHGAP8 /// PRR5-ARHGAP8 (11727945_x_at) / RFU KRTAP5-7 /// NADSYN1 (11734609_at) / Fold change /veh KRTAP5-7 /// NADSYN1 (11734609_at) / RFU RASL12 (11751679_a_at) / Fold change /veh RASL12 (11751679_a_at) / RFU CDKN2B (11736163_a_at) / Fold change /veh CDKN2B (11736163_a_at) / RFU PRF1 (11729649_at) / Fold change /veh PRF1 (11729649_at) / RFU, ZNF638 /// ZNF638-IT1 / Fold change vs veh, ZNF638 /// ZNF638-IT1 / RFU, PANK3 / Fold change vs veh, PANK3 / RFU, SH3YL1 / Fold change vs veh, SH3YL1 / RFU, ZEB2 / Fold change vs veh, ZEB2 / RFU, NRIP1 / Fold change vs veh, NRIP1 / RFU, PTTG1IP / Fold change vs veh, PTTG1IP / RFU, CAPN2 / Fold change vs veh, CAPN2 / RFU, MED14 / Fold change vs veh, MED14 / RFU, SNORA58 / Fold change vs veh, SNORA58 / RFU, C1orf63 / Fold change vs veh, C1orf63 / RFU, LRRFIP1 / Fold change vs veh, LRRFIP1 / RFU, NDUFAF7 / Fold change vs veh, NDUFAF7 / RFU, SLC12A2 / Fold change vs veh, SLC12A2 / RFU, IBTK / Fold change vs veh, IBTK / RFU, ESF1 / Fold change vs veh, ESF1 / Fold change vs veh, TMEM50B / RFU, TAOK1 / Fold change vs veh, TAOK1 / RFU, ACBD3 / Fold change vs veh, ACBD3 / RFU, TMA16 / Fold change vs veh, TMA16 / RFU, RWDD3 / Fold change vs veh, RWDD3 / RFU, BCAT1 / Fold change vs veh, BCAT1 / RFU, EDEM3 / Fold change vs veh, EDEM3 / RFU, TMEM33 / Fold change vs veh, TMEM33 / RFU, WDR75 / Fold change vs veh, WDR75 / RFU, AHCTF1 / Fold change vs veh, AHCTF1 / RFU, TFRC / Fold change vs veh, TFRC / RFU, ZDHHC17 / Fold change vs veh, ZDHHC17 / RFU, NOM1 / Fold change vs veh, NOM1 / RFU, ARL8B / Fold change vs veh, ARL8B / RFU, ZBTB11 / Fold change vs veh, ZBTB11 / RFU, TAMM41 / Fold change vs veh, TAMM41 / RFU, KIAA1704 /// LOC100996395 / Fold change vs veh, KIAA1704 /// LOC100996395 / RFU, ING1 / Fold change vs veh, ING1 / RFU, TRMT61B / Fold change vs veh, TRMT61B / RFU, FUBP3 / Fold change vs veh, FUBP3 / RFU, TP53 / Fold change vs veh, TP53 / RFU, TNKS2 / Fold change vs veh, TNKS2 / RFU, ZFP14 / Fold change vs veh, ZFP14 / RFU, ACTR2 / Fold change vs veh, ACTR2 / RFU, PPP3R1 / Fold change vs veh, PPP3R1 / RFU, PIK3R1 / Fold change vs veh, PIK3R1 / RFU, HNRNPA1 / Fold change vs veh, HNRNPA1 / RFU, RNF170 / Fold change vs veh, RNF170 / RFU, ZNF28 / Fold change vs veh, ZNF28 / RFU, RNGTT / Fold change vs veh, RNGTT / RFU, OGT / Fold change vs veh, OGT / RFU, BRD1 / Fold change vs veh, BRD1 / RFU, MARS / Fold change vs veh, MARS / RFU, ZNF655 / Fold change vs veh, ZNF655 / RFU, FAHD1 / Fold change vs veh, FAHD1 / RFU, BDP1 / Fold change vs veh, BDP1 / RFU, LRRCC1 / Fold change vs veh, LRRCC1 / RFU, ARID1A / Fold change vs veh, ARID1A / RFU, ZNF146 / Fold change vs veh, ZNF146 / RFU, ZNF330 / Fold change vs veh, ZNF330 / RFU, GPN3 / Fold change vs veh, GPN3 / RFU, C9orf123 / Fold change vs veh, C9orf123 / RFU, N4BP2L2 / Fold change vs veh, N4BP2L2 / RFU, ARFIP1 / Fold change vs veh, ARFIP1 / RFU, FAM179B / Fold change vs veh, FAM179B / RFU, BCL10 / Fold change vs veh, BCL10 / RFU, UHRF1BP1L / Fold change vs veh, UHRF1BP1L / RFU, BET1 / Fold change vs veh, BET1 / RFU, CNOT2 / Fold change vs veh, CNOT2 / RFU, ZNF268 / Fold change vs veh, ZNF268 / Fold change vs veh, ZNF507 / RFU, DGCR2 / Fold change vs veh, DGCR2 / RFU, WDSUB1 / Fold change vs veh, WDSUB1 / Fold change vs veh, HSP90B1 /// MIR3652 / RFU, ADSS / Fold change vs veh, ADSS / RFU, GK / Fold change vs veh, GK / RFU, ZNF148 / Fold change vs veh, ZNF148 / RFU, TAF9 / Fold change vs veh, TAF9 / RFU, SLC1A5 / Fold change vs veh, SLC1A5 / RFU, SLMO2 / Fold change vs veh, SLMO2 / RFU, ABCC4 / Fold change vs veh, ABCC4 / RFU, LOC101060439 /// RAP1B / Fold change vs veh, LOC101060439 /// RAP1B / RFU, RFX7 / Fold change vs veh, RFX7 / RFU, GTPBP10 / Fold change vs veh, GTPBP10 / RFU, CNEP1R1 / Fold change vs veh, CNEP1R1 / RFU, BIVM-ERCC5 /// ERCC5 / Fold change vs veh, BIVM-ERCC5 /// ERCC5 / RFU, ILF3 / Fold change vs veh, ILF3 / RFU 11762660_at / Fold change /veh 11762660_at / RFU VCAN (11757783_s_at) / Fold change /veh VCAN (11757783_s_at) / RFU DDX43 (11728927_at) / Fold change /veh DDX43 (11728927_at) / RFU KRT8 (11758188_x_at) / Fold change /veh KRT8 (11758188_x_at) / RFU NKD1 (11759106_at) / Fold change /veh NKD1 (11759106_at) / RFU SRD5A1 (11742802_a_at) / Fold change /veh SRD5A1 (11742802_a_at) / RFU TPSAB1 /// TPSB2 (11721975_s_at) / Fold change /veh TPSAB1 /// TPSB2 (11721975_s_at) / RFU GSTM3 (11746129_a_at) / Fold change /veh GSTM3 (11746129_a_at) / RFU IL23R (11737362_x_at) / Fold change /veh IL23R (11737362_x_at) / RFU TMEM51 (11727254_a_at) / Fold change /veh TMEM51 (11727254_a_at) / RFU PIWIL2 (11732686_x_at) / Fold change /veh PIWIL2 (11732686_x_at) / RFU ORM1 (11744905_x_at) / Fold change /veh ORM1 (11744905_x_at) / RFU CCDC152 (11743942_at) / Fold change /veh CCDC152 (11743942_at) / RFU ECM1 (11717891_a_at) / Fold change /veh ECM1 (11717891_a_at) / RFU IL23R (11748794_a_at) / Fold change /veh IL23R (11748794_a_at) / RFU TNFAIP8L3 (11732012_x_at) / Fold change /veh TNFAIP8L3 (11732012_x_at) / RFU MBOAT4 (11741988_at) / Fold change /veh MBOAT4 (11741988_at) / RFU 11764193_at / Fold change /veh 11764193_at / RFU TMEM53 (11763286_at) / Fold change /veh TMEM53 (11763286_at) / RFU MAGEB2 (11727129_at) / Fold change /veh MAGEB2 (11727129_at) / RFU TMEM200A (11744735_a_at) / Fold change /veh TMEM200A (11744735_a_at) / RFU CCDC152 (11751479_a_at) / Fold change /veh CCDC152 (11751479_a_at) / RFU FAM211A (11726209_a_at) / Fold change /veh FAM211A (11726209_a_at) / RFU RGS16 (11746705_a_at) / Fold change /veh RGS16 (11746705_a_at) / RFU VCAN (11755009_s_at) / Fold change /veh VCAN (11755009_s_at) / RFU RHOB (11743442_s_at) / Fold change /veh RHOB (11743442_s_at) / RFU RGS16 (11720943_a_at) / Fold change /veh RGS16 (11720943_a_at) / RFU RGS16 (11720944_at) / Fold change /veh RGS16 (11720944_at) / RFU, VPS4B / Fold change vs veh, VPS4B / RFU, CREB1 / Fold change vs veh, CREB1 / RFU, DNAJC13 / Fold change vs veh, DNAJC13 / RFU, GNAQ / Fold change vs veh, GNAQ / RFU, CDK5R1 / Fold change vs veh, CDK5R1 / RFU, ZRANB3 / Fold change vs veh, ZRANB3 / RFU, CUL4A / Fold change vs veh, CUL4A / RFU, CCNY / Fold change vs veh, CCNY / RFU, UFL1 / Fold change vs veh, UFL1 / RFU, COG3 / Fold change vs veh, COG3 / RFU, DIAPH2 / Fold change vs veh, DIAPH2 / RFU, SKA2 / Fold change vs veh, SKA2 / RFU, AFF3 / Fold change vs veh, AFF3 / RFU, LMF1 / Fold change vs veh, LMF1 / RFU, IPO11 / Fold change vs veh, IPO11 / RFU, DFFB / Fold change vs veh, DFFB / RFU, FOXP1 / Fold change vs veh, FOXP1 / RFU, CARD8 / Fold change vs veh, CARD8 / RFU, STRN3 / Fold change vs veh, STRN3 / RFU, ADK / Fold change vs veh, ADK / RFU, RASSF2 / Fold change vs veh, RASSF2 / RFU, WIPF1 / Fold change vs veh, WIPF1 / RFU, LARP1B / Fold change vs veh, LARP1B / RFU, RASA1 / Fold change vs veh, RASA1 / RFU, RB1 / Fold change vs veh, RB1 / RFU, PPFIA1 / Fold change vs veh, PPFIA1 / RFU, MAT2A / Fold change vs veh, MAT2A / RFU, CCT5 / Fold change vs veh, CCT5 / RFU, WDR92 / Fold change vs veh, WDR92 / RFU, CUX1 / Fold change vs veh, CUX1 / RFU, TTC7A / Fold change vs veh, TTC7A / RFU, TMEM135 / Fold change vs veh, TMEM135 / RFU, DEPTOR / Fold change vs veh, DEPTOR / RFU, CPM / Fold change vs veh, CPM / RFU, DNAJB6 / Fold change vs veh, DNAJB6 / RFU, CACNA2D3 / Fold change vs veh, CACNA2D3 / RFU, DTX4 / Fold change vs veh, DTX4 / RFU, TFCP2 / Fold change vs veh, TFCP2 / RFU, GMCL1 /// GMCL1P1 / Fold change vs veh, GMCL1 /// GMCL1P1 / RFU, AEBP2 / Fold change vs veh, AEBP2 / RFU, SNHG1 /// SNORD22 /// SNORD25 /// SNORD26 /// SNORD27 /// SNORD28 /// SNORD29 /// SNORD31 / Fold change vs veh, SNHG1 /// SNORD22 /// SNORD25 /// SNORD26 /// SNORD27 /// SNORD28 /// SNORD29 /// SNORD31 / Fold change (Aza/veh), C12orf56 (ProbeSet 11735607_a_at) / Fold change (ACY-1035/veh), C12orf56 (ProbeSet 11735607_a_at) / Fold change (Aza/veh), FGFR1OP (ProbeSet 11751329_s_at) / Fold change (ACY-1035/veh), FGFR1OP (ProbeSet 11751329_s_at) / Fold change (Aza/veh), VPS36 (ProbeSet 11739960_a_at) / Fold change (ACY-1035/veh), VPS36 (ProbeSet 11739960_a_at) / RFU SYPL1 (11715823_x_at) / Fold change /veh SYPL1 (11715823_x_at) / RFU IGFBP7 (11715501_s_at) / Fold change /veh IGFBP7 (11715501_s_at) / RFU REEP3 (11722064_at) / Fold change /veh REEP3 (11722064_at) / RFU IGLL1 (11728026_x_at) / Fold change /veh IGLL1 (11728026_x_at): dose or concentration left out as unconfirmed", "details": "ProbeSet 11741070_a_at; LIST B"}
{"molecule": "Nc1ccc(-c2cccs2)cc1NC(=O)c1ccc2c(c1)cc(C1CC1)n2CCN1CCOCC1", "note": "[ACY-1035]", "values": [{"measurement": "Fold change vs veh, ZNF146", "result": 0.99}]}
